Reference: PubChem BioAssay AID651981 (The Scripps Research Institute Molecular Screening Center, 2013)
Active and inactive are the calls of the source. The rule behind the calls is not given here.

Key:
Experiment in all cases: PubChem AID 651981
ACOT1 = conditions: BW5147 mouse T-cell proteome, ABPP-SILAC LC-MS ratio, at 1 µM, active compounds read low
DPP4 = conditions: BW5147 mouse T-cell proteome, ABPP-SILAC LC-MS ratio, at 1 µM, active compounds read low
DPP9 = conditions: BW5147 mouse T-cell proteome, ABPP-SILAC LC-MS ratio, at 1 µM, active compounds read low
TPP2 = conditions: BW5147 mouse T-cell proteome, ABPP-SILAC LC-MS ratio, at 1 µM, active compounds read low
[1] = molecular target: Platelet-activating factor acetylhydrolase 2, cytoplasmic (Mus musculus) (UniProt Q8VDG7); conditions: BW5147 mouse T-cell proteome, ABPP-SILAC LC-MS ratio; PAFAH2; at 1 µM; active compounds read low
Sequence of Platelet-activating factor acetylhydrolase 2, cytoplasmic (Mus musculus) (Q8VDG7 whole entry, looked up): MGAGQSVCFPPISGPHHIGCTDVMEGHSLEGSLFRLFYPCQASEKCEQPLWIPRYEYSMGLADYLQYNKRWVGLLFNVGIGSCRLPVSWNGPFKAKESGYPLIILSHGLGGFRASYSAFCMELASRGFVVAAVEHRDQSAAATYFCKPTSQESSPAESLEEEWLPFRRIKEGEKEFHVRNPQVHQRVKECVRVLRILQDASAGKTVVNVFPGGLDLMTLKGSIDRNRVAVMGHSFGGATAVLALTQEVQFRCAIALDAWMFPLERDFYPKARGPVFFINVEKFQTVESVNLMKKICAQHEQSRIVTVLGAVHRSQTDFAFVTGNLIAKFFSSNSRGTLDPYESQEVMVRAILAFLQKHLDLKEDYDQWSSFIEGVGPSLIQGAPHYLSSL

PPME1 = conditions: BW5147 mouse T-cell proteome, ABPP-SILAC LC-MS ratio, at 1 µM, active compounds read low
AADACL1 = conditions: BW5147 mouse T-cell proteome, ABPP-SILAC LC-MS ratio, at 1 µM, active compounds read low
LYPLA2 = conditions: BW5147 mouse T-cell proteome, ABPP-SILAC LC-MS ratio, at 1 µM, active compounds read low
LIPE = conditions: BW5147 mouse T-cell proteome, ABPP-SILAC LC-MS ratio, at 1 µM, active compounds read low
PNPLA6 = conditions: BW5147 mouse T-cell proteome, ABPP-SILAC LC-MS ratio, at 1 µM, active compounds read low
[2] = molecular target: Acyl-protein thioesterase 1 (Mus musculus) (UniProt P97823); conditions: BW5147 mouse T-cell proteome, ABPP-SILAC LC-MS ratio; LYPLA1; at 1 µM; active compounds read low
Sequence of Acyl-protein thioesterase 1 (Mus musculus) (P97823 whole entry, looked up): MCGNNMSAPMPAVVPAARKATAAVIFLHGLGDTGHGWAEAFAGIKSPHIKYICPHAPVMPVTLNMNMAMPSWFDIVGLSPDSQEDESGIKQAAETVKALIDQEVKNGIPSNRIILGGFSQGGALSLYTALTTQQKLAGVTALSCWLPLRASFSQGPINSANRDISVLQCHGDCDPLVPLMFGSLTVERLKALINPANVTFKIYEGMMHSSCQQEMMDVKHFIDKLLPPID

PNPLA7 = conditions: BW5147 mouse T-cell proteome, ABPP-SILAC LC-MS ratio, at 1 µM, active compounds read low
PRCP = conditions: BW5147 mouse T-cell proteome, ABPP-SILAC LC-MS ratio, at 1 µM, active compounds read low
FAAH = conditions: BW5147 mouse T-cell proteome, ABPP-SILAC LC-MS ratio, at 1 µM, active compounds read low
DPP8 = conditions: BW5147 mouse T-cell proteome, ABPP-SILAC LC-MS ratio, at 1 µM, active compounds read low
ESD = conditions: BW5147 mouse T-cell proteome, ABPP-SILAC LC-MS ratio, at 1 µM, active compounds read low
FASN = conditions: BW5147 mouse T-cell proteome, ABPP-SILAC LC-MS ratio, at 1 µM, active compounds read low
SEC23IP = conditions: BW5147 mouse T-cell proteome, ABPP-SILAC LC-MS ratio, at 1 µM, active compounds read low
[3] = molecular target: Prolyl endopeptidase (Mus musculus) (UniProt Q9QUR6); conditions: BW5147 mouse T-cell proteome, ABPP-SILAC LC-MS ratio; PREP; at 1 µM; active compounds read low
Sequence of Prolyl endopeptidase (Mus musculus) (Q9QUR6 whole entry, looked up): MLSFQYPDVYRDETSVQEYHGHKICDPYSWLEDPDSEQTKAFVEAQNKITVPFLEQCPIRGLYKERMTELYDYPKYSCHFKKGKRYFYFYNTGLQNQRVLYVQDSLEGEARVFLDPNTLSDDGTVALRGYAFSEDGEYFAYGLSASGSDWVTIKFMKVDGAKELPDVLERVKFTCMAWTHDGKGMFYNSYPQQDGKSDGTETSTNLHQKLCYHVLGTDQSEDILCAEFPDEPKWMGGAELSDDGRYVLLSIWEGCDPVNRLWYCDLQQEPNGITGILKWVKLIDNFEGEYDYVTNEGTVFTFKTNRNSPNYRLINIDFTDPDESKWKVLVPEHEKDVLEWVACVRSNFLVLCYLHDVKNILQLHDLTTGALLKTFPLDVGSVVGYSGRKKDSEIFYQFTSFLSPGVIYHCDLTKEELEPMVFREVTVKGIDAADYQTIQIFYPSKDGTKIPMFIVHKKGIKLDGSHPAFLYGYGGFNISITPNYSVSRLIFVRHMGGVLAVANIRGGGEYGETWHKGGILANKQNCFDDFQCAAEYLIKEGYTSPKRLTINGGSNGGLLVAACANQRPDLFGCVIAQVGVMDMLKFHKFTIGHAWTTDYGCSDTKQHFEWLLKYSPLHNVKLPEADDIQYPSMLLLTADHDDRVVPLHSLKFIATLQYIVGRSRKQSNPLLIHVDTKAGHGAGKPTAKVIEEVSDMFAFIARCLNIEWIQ

ACOT2 = conditions: BW5147 mouse T-cell proteome, ABPP-SILAC LC-MS ratio, at 1 µM, active compounds read low
PAFAH1B2 = conditions: BW5147 mouse T-cell proteome, ABPP-SILAC LC-MS ratio, at 1 µM, active compounds read low
[4] = molecular target: Monoacylglycerol lipase ABHD6 (Mus musculus) (UniProt Q8R2Y0); conditions: BW5147 mouse T-cell proteome, ABPP-SILAC LC-MS ratio, at 1 µM, active compounds read low
Sequence of Monoacylglycerol lipase ABHD6 (Mus musculus) (Q8R2Y0 whole entry, looked up): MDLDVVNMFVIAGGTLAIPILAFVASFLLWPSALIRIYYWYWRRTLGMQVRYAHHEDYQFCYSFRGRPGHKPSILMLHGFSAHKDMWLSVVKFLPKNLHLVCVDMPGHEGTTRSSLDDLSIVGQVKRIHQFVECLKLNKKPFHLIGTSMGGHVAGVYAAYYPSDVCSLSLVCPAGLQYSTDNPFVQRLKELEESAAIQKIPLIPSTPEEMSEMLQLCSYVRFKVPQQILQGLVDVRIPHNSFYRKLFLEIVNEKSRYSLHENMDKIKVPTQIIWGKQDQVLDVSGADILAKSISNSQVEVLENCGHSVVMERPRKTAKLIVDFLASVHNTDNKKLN

ABHD12 = conditions: BW5147 mouse T-cell proteome, ABPP-SILAC LC-MS ratio, at 1 µM, active compounds read low
APEH = conditions: BW5147 mouse T-cell proteome, ABPP-SILAC LC-MS ratio, at 1 µM, active compounds read low
PAFAH1B3 = conditions: BW5147 mouse T-cell proteome, ABPP-SILAC LC-MS ratio, at 1 µM, active compounds read low

- remaining activity ratio (inhibitor/DMSO) (ACOT1): 1.23 (inactive)
- remaining activity ratio (inhibitor/DMSO) (DPP4): 1.17 (inactive)
- remaining activity ratio (inhibitor/DMSO) (DPP9): 1.12 (inactive)
- remaining activity ratio (inhibitor/DMSO) (TPP2): 1.2 (inactive)
- remaining activity ratio (inhibitor/DMSO) [1]: 1.14 (inactive)
- remaining activity ratio (inhibitor/DMSO) (PPME1): 1.34 (inactive)
- remaining activity ratio (inhibitor/DMSO) (AADACL1): 1.46 (inactive)
- remaining activity ratio (inhibitor/DMSO) (LYPLA2): 0.01
- remaining activity ratio (inhibitor/DMSO) (LIPE): 0.88 (inactive)
- remaining activity ratio (inhibitor/DMSO) (PNPLA6): 1.03 (inactive)
- remaining activity ratio (inhibitor/DMSO) [2]: 1.08 (inactive)
- remaining activity ratio (inhibitor/DMSO) (PNPLA7): 1.12 (inactive)
- remaining activity ratio (inhibitor/DMSO) (PRCP): 1.56 (inactive)
- remaining activity ratio (inhibitor/DMSO) (FAAH): 1.25 (inactive)
- remaining activity ratio (inhibitor/DMSO) (DPP8): 1.1 (inactive)
- remaining activity ratio (inhibitor/DMSO) (ESD): 1.24 (inactive)
- remaining activity ratio (inhibitor/DMSO) (FASN): 1.14 (inactive)
- remaining activity ratio (inhibitor/DMSO) (SEC23IP): 1.53 (inactive)
- remaining activity ratio (inhibitor/DMSO) [3]: 1.12 (inactive)
- remaining activity ratio (inhibitor/DMSO) (ACOT2): 1.25 (inactive)
- remaining activity ratio (inhibitor/DMSO) (PAFAH1B2): 1.23 (inactive)
- remaining activity ratio (inhibitor/DMSO) [4]: 1.06 (inactive)
- remaining activity ratio (inhibitor/DMSO) (ABHD12): 1.21 (inactive)
- remaining activity ratio (inhibitor/DMSO) (APEH): 1.11 (inactive)
- remaining activity ratio (inhibitor/DMSO) (PAFAH1B3): 1.09 (inactive)
SMILES: COc1ccc(N2CCN(C(=O)c3cc4c(s3)-c3ccccc3S(=O)(=O)C4)CC2)cc1
